{"source": "patent US20110117168A1", "about": "“METHODS AND COMPOSITIONS FOR SOFT TISSUE REPAIR” (AFFINERGY, INC., priority 2009, published 2011)", "key": {"[1]": {"tested_on": "MSCs", "experiment": "Chondrocyte differentiation of peptide-captured MSCs (aggrecan immunostaining)", "type": "cell-based, human", "conditions": "24 days in CHONDRODIFF medium", "description": "Chondrocyte differentiation. To examine chondrocyte differentiation, the MSCs present in the […] column eluants (see Example 6) were pelleted by centrifugation at 150×g for 5 minutes. Cells were washed once with 1 ml MACS NH CHONDRODIFF Medium without disturbing the pellet. Cells were spun again and 1 mL CHONDRODIFF Medium was added to each pellet. Every third day, medium was aspirated and replaced with fresh pre-warmed medium. After 24 days in culture, cells exposed to CHONDRODIFF medium formed cartilage plugs or nodules, whereas control cells formed only loose or small nodules. Cells were washed once with PBS and fixed in neutral buffered formalin overnight. Sections were embedded in paraffin and sectioned at 5 microns. Sections were examined by hemotoxylin and eosin staining (data not shown). Sections were further examined by immunostaining for aggrecan, a major structural component of cartilage. In FIG. 27, sections from the periphery (panels A and B) or center (panels C and D) were incubated with an antibody against aggrecan (ABCAM) (panels B and D) or with secondary detection reagents only as a control (panels A and C), then counterstained with DAPI to reveal cell nuclei. […] Control images of captured cells grown in the absence of differentiation medium could not be taken due to the small and loose nature of nodules."}, "[2]": {"tested_on": "human MSCs", "experiment": "Capture of cultured MSCs with peptide on […] Streptavidin microbeads in LS columns", "type": "cell-based", "conditions": "160,000 cultured human MSCs, peptide 20 μM on Streptavidin microbeads, LS column", "description": "In this experiment the ability of the biotinylated cell binding peptide SEQ ID NO: 4 to capture human MSCs from a homogeneous cultured cell population was examined. The cell binding peptide SEQ ID NO: 4 was biotinylated as described herein at Example 2. The cell binding peptide SEQ ID NO: 4, and a non-binding control peptide, were added to separate 300 μl volumes of […] BIOTEC Streptavidin microbeads at a concentration of 20 μM. These beads are made from iron filings, coated with a dextran coating which is functionalized with streptavidin moieties. Peptide was incubated with beads for 45 min on ice. The 300 μl of peptide coated microbeads were added to pre-equilibrated LS columns outside of the magnetic field to evenly distribute the magnetic beads throughout the columns. Columns were then placed into a magnetic field, and excess peptide was washed away with buffer while retaining the peptide coated microbeads. Cultured and expanded human MSCs from bone marrow aspirate (160,000 cells; LONZA) were added to each LS column and allowed to pass through by gravity flow. Flowthrough was collected and cycled through the columns 5 times, after which the columns were washed with 5 ml buffer. […] The collected flowthrough with 5 ml wash and eluted cells were spun down, resuspended in a smaller volume, and counted by hemacytometer (see FIG. 17). […]"}, "[3]": {"tested_on": "dermal fibroblasts", "experiment": "Biotinylated peptide cell binding specificity by flow cytometry (Neutravidin-PE)", "type": "cell-based, human", "conditions": "25 μM peptide solution, 30 min at 4° C.", "text": "The synthetic biotinylated cell binding peptide SEQ ID NO: 4 was examined for its ability to specifically bind MSCs compared to a number of other cells types including adipose-derived mesenchymal stem cells (ASCs), dermal fibroblasts, rodent MSCs, red blood cells, monocytes, lymphocytes and granulocytes. The cell binding peptide was biotinylated as described herein at Example 2. Cultured cells of each type were either purchased (ASCs and dermal fibroblasts) or isolated from rodent bone marrow (rodent MSCs) or human blood. Cells were first harvested and resuspended at 10^6/mL in PBS+2% fetal bovine serum (FBS). An aliquot of cells (50 μL) was incubated in 50 μL of peptide solution (25 μM in PBS+FBS) for 30 min at 4° C. Cells were then washed twice in PBS+FBS with 300×g centrifugation for 5 min between washes. Fluorescently-tagged neutravidin (Neutravidin-PE from INVITROGEN) was then added to the cells to label biotinylated peptide bound to cells. Neutravidin-PE was diluted 1:250 from stock and applied at 50 μL to cells. Cells were then washed in PBS+FBS, and acquired on a BD […]. Peptide reactivity was then measured as percent positivity relative to Neutravidin-PE staining without the addition of biotinylated peptide."}, "[4]": {"tested_on": "MSCs", "experiment": "Immunoreactivity of cells captured from bone marrow aspirate", "type": "cell-based, human", "conditions": "CD29, CD44, CD73, CD105, CD166, CD90, CD45, CD34", "description": "(§1) This experiment was performed to examine the ability of cell binding peptide SEQ ID NO: 4 to capture MSCs directly from bone marrow aspirate in comparison to two separate antibodies against the CD105 I antigen (CD105) and the MSCA-1 stem cell antigen (MSCA-1). This experiment employed biotinylated peptides with streptavidin-coated […] magnetic beads. The peptides were biotinylated as described herein at Example 2. […] For the antibody capture experiment, magnetic beads having covalently attached CD105 or MSCA-1 antibody were employed ([…]). Prior to incubation with the peptides and antibodies, bone marrow aspirate (BMA) was mixed with 5 volumes of 10 mM ammonium chloride for 1-2 min at room temperature to lyse red blood cells. The lysate was centrifuged for 5 min at 300×g and the supernatant discarded. The cell pellet was washed with wash buffer (PBS+0.5% bovine serum albumin+0.5 mM EDTA) and cells were resuspended in […] peptide at a concentration of 10^8 per mL. For peptide binding studies, the cell suspension was incubated with the biotinylated peptides for 30 min at 4° C. to allow for binding. After incubation, cells were spun down at 300×g for 5 min, and peptide solution was aspirated. Cells were then rinsed twice with wash buffer, with centrifugation between washes. […] Colony forming units (CFUs) were counted after 14 days in culture. […]"}, "[5]": {"tested_on": "MSCs", "experiment": "Capture of MSCs from bone marrow aspirate, colony forming units", "type": "cell-based, human", "conditions": "biotinylated peptide, streptavidin-coated MILTENYI beads; compared to CD105 and MSCA-1 antibody beads", "description": "as §1"}}, "note": "Ends that are not written are not given here."}
{"sequence": "SSFWDVCQGDGTCYGGGSR (SSFWDVCQGDGTCYGGGSRGSSG-{K(biotin)}; cysteine pairing not given here) [SEQ ID NO: 4, tested biotinylated with GSSGK(biotin) or other spacer at the C-terminus]", "values": [{"measurement": "chondrocyte differentiation of captured MSCs (aggrecan)", "setting": "[1]", "result": "aggrecan could be detected"}, {"measurement": "capture of MSCs", "setting": "[2]", "result": "approximately 70%"}, {"measurement": "binding to dermal fibroblasts (percent positivity relative to Neutravidin-PE staining)", "setting": "[3]", "result": "high binding"}, {"measurement": "immunoreactivity of isolated cells compared with CD105 isolated cells", "setting": "[4]", "result": "no changes were observed"}, {"measurement": "MSC capture from bone marrow aspirate (CFUs after 14 days in culture)", "setting": "[5]", "result": "as efficient as capture by either of the CD105 or MSCA-1 antibodies"}]}
